Reference: PubChem BioAssay AID248 (DTP/NCI, 2004)
Values joined by “and” are separate entries in the source; they are usually repeats but may differ in a detail not shown here. Equal values may be shown once. Toxic doses and inconclusive results are not listed. Cut-off read from the data, not from the text of the source: active = T/C of 150% or more; inactive = T/C below 125%.

System: L1210 leukemia ip in BDF1 mice, survival T/C
Test: NCI In Vivo Anticancer Drug Screen. Data for tumor model L1210 Leukemia (intraperitoneal) in B6D2F1 (BDF1) mice
Settings: endpoint: mean survival time, higher = longer survival
Method in brief: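 Tumor was transplanted into mice, which were then dosed with test compound or vehicle alone. Survival was recorded for each group, and the treated figure was expressed relative to the control figure.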

[1] = dose: 100.0 mg/kg/injection, schedule: Q01DX001 (ip), vehicle: saline
[2] = dose: 200.0 mg/kg/injection, schedule: Q01DX001 (ip), vehicle: saline
[3] = dose: 400.0 mg/kg/injection, schedule: Q01DX001 (ip), vehicle: saline
[4] = dose: 100.0 mg/kg/injection, schedule: Q01DX009 (ip), vehicle: Klucel (hydroxypropylcellulose) (HPC)
[5] = dose: 200.0 mg/kg/injection, schedule: Q01DX009 (ip), vehicle: Klucel (hydroxypropylcellulose) (HPC)
[6] = dose: 400.0 mg/kg/injection, schedule: Q01DX009 (ip), vehicle: Klucel (hydroxypropylcellulose) (HPC)
[7] = dose: 100.0 mg/kg/injection, schedule: Q04DX003 (ip), vehicle: Klucel (hydroxypropylcellulose) (HPC)
[8] = dose: 200.0 mg/kg/injection, schedule: Q04DX003 (ip), vehicle: Klucel (hydroxypropylcellulose) (HPC)
[9] = dose: 400.0 mg/kg/injection, schedule: Q04DX003 (ip), vehicle: Klucel (hydroxypropylcellulose) (HPC)
[10] = dose: 100.0 mg/kg/injection, schedule: Q01DX001 (ip), vehicle: saline with Tween-80
[11] = dose: 200.0 mg/kg/injection, schedule: Q01DX001 (ip), vehicle: saline with Tween-80
[12] = dose: 400.0 mg/kg/injection, schedule: Q01DX001 (ip), vehicle: saline with Tween-80
[13] = dose: 100.0 mg/kg/injection, schedule: Q01DX009 (ip), vehicle: saline
[14] = dose: 100.0 mg/kg/injection, schedule: Q04DX003 (ip), vehicle: saline
[15] = dose: 200.0 mg/kg/injection, schedule: Q01DX009 (ip), vehicle: saline
[16] = dose: 200.0 mg/kg/injection, schedule: Q04DX003 (ip), vehicle: saline
[17] = dose: 400.0 mg/kg/injection, schedule: Q04DX003 (ip), vehicle: saline
[18] = dose: 50.0 mg/kg/injection, schedule: Q01DX009 (ip), vehicle: saline with Tween-80
[19] = dose: 100.0 mg/kg/injection, schedule: Q01DX009 (ip), vehicle: saline with Tween-80
[20] = dose: 200.0 mg/kg/injection, schedule: Q01DX009 (ip), vehicle: saline with Tween-80
[21] = dose: 100.0 mg/kg/injection, schedule: Q01DX001 (ip), vehicle: Klucel (hydroxypropylcellulose) (HPC)
[22] = dose: 200.0 mg/kg/injection, schedule: Q01DX001 (ip), vehicle: Klucel (hydroxypropylcellulose) (HPC)
[23] = dose: 100.0 mg/kg/injection, schedule: Q04DX003 (ip), vehicle: saline with Tween-80
[24] = dose: 200.0 mg/kg/injection, schedule: Q04DX003 (ip), vehicle: saline with Tween-80
[25] = dose: 400.0 mg/kg/injection, schedule: Q04DX003 (ip), vehicle: saline with Tween-80
[26] = dose: 100.0 mg/kg/injection, schedule: Q04DX002 (ip), vehicle: saline with Tween-80
[27] = dose: 200.0 mg/kg/injection, schedule: Q04DX002 (ip), vehicle: saline with Tween-80
[28] = dose: 400.0 mg/kg/injection, schedule: Q01DX009 (ip), vehicle: saline with Tween-80

Measured: T/C

O=C(O)CN(CC(=O)O)c1ccccc1
inactive: dose: 50.0 mg/kg/injection, schedule: Q01DX001 (ip), vehicle: saline 103 % of control | [1] 92 % of control | [2] 103 % of control | [3] 95 % of control

COC(=O)c1cc(NC(=O)Nc2cccc(C(C)=O)c2)cc(C(=O)OC)c1
inactive: [4] 98 % of control | [5] 102 % of control | [6] 93 % of control

CC1C2CC(C3(C)OCCO3)CCC2(C)CCC12OCCO2 (stereo not drawn)
inactive: [7] 101 % of control | [8] 106 % of control | [9] 106 % of control

CC1(C)CCC(C)(C)C2CC3C(CC21)C(C)(C)CCC3(C)C (stereo not drawn)
inactive: [1] 109 % of control | [2] 112 % of control | [3] 100 % of control

C/C=C/C=C/C(=O)c1cc(C#N)c(OC)cc1O
inactive: [10] 93 % of control | [11] 90 % of control | [12] 93 % of control

CCOc1ccc(NC(=O)CCC(=O)O)cc1
inactive: [4] 91 % of control | [5] 93 % of control | [6] 91 % of control

NC(=O)n1ccc(CC(O)(C(F)(F)F)C(F)(F)F)n1
inactive: [10] 96 % of control | [11] 96 % of control | [12] 96 % of control

O=C1Nc2ccccc2C1=O
inactive: dose: 50.0 mg/kg/injection, schedule: Q01DX009 (ip), vehicle: saline 92 % of control | [13] 103 % of control | [14] 99 % of control | [15] 103 % of control | [16] 99 % of control | dose: 400.0 mg/kg/injection, schedule: Q01DX009 (ip), vehicle: saline 96 % of control | [17] 99 % of control

C/C=C/CCCCC
inactive: [18] 102 % of control | [19] 118 % of control | [20] 94 % of control

Nc1cc2c3c(cccc3c1)C(=O)N(Cc1ccccc1)C2=O
inactive: dose: 75.0 mg/kg/injection, schedule: Q01DX009 (ip), vehicle: Klucel (hydroxypropylcellulose) (HPC) 89 % of control | dose: 150.0 mg/kg/injection, schedule: Q01DX009 (ip), vehicle: Klucel (hydroxypropylcellulose) (HPC) 92 % of control | dose: 300.0 mg/kg/injection, schedule: Q01DX009 (ip), vehicle: Klucel (hydroxypropylcellulose) (HPC) 97 % of control

CCOC(=O)Nc1cc(NCCCCc2ccccc2)c(N)c(N)n1
inactive: [10] 101 % of control | [11] 102 % of control

Clc1cccc(/C=C2\c3cc(Cl)ccc3-c3c(Cl)cc(Cl)cc32)c1
inactive: [21] 96 % of control | [4] 106 % of control | [7] 97 % of control | [22] 93 % of control | [5] 98 % of control | [8] 101 % of control | dose: 400.0 mg/kg/injection, schedule: Q01DX001 (ip), vehicle: Klucel (hydroxypropylcellulose) (HPC) 93 % of control | [6] 98 % of control | [9] 101 % of control

Cc1ccc2cc(O)ccc2c1
inactive: [1] 91 % of control | dose: 100.0 mg/kg/injection, schedule: Q04DX003 (ip), vehicle: acetone 90 % of control | [2] 96 % of control | dose: 200.0 mg/kg/injection, schedule: Q04DX003 (ip), vehicle: acetone 90 % of control | [3] 92 % of control

CN(C)C(C)(C)CO
inactive: [13] 98 % of control | [14] 96 % of control | [15] 98 % of control | [16] 98 % of control | [17] 101 % of control

Cc1ccc(NC(=S)NCCc2ccccn2)cc1C
inactive: [4] 96 % of control | [5] 99 % of control | [6] 91 % of control

O=C1C2(c3ccccc3)C(c3ccccc3)=C(c3ccccc3)C1(c1ccccc1)C1CC=CC12 (stereo not drawn)
inactive: [19] 98 % of control | [23] 96 % of control | [20] 100 % of control | [24] 104 % of control | [25] 96 % of control

Clc1nccnc1C(Cl)(Cl)Cl
inactive: dose: 50.0 mg/kg/injection, schedule: Q01DX009 (ip), vehicle: other 92 % of control | dose: 100.0 mg/kg/injection, schedule: Q01DX009 (ip), vehicle: other 95 % of control

COC(=O)c1cc(N2CC2)nc(Cl)n1
inactive: dose: 25.0 mg/kg/injection, schedule: Q01DX Z (ip), vehicle: methylcellulose (MC) 101 % of control | dose: 50.0 mg/kg/injection, schedule: Q01DX Z (ip), vehicle: methylcellulose (MC) 93 % of control

O=C(COc1ccc(Cl)cc1)Nc1ccc(Br)cc1
inactive: dose: 100.0 mg/kg/injection, schedule: Q04DX002 (ip), vehicle: gum acacia 97 % of control | dose: 200.0 mg/kg/injection, schedule: Q04DX002 (ip), vehicle: gum acacia 106 % of control | dose: 400.0 mg/kg/injection, schedule: Q04DX002 (ip), vehicle: gum acacia 95 % of control

CC1C[N+](C)=C(c2ccc(O)cc2)S1 (stereo not drawn)
inactive: dose: 50.0 mg/kg/injection, schedule: Q01DX001 (ip), vehicle: saline with Tween-80 103 % of control | [10] 107 % of control

Cc1c2ccccc2c2ccccc2[n+]1[O-]
inactive: [26] 97 % of control | [27] 101 % of control

NNC(=O)CNc1ccc(F)cc1F
inactive: dose: 100.0 mg/kg/injection, schedule: Q04DX002 (ip), vehicle: Klucel (hydroxypropylcellulose) (HPC) 101 % of control | dose: 200.0 mg/kg/injection, schedule: Q04DX002 (ip), vehicle: Klucel (hydroxypropylcellulose) (HPC) 114 % of control

O=c1cc(NCc2cccc3ccc(Cl)cc23)[nH]c(=O)[nH]1
inactive: dose: 50.0 mg/kg/injection, schedule: Q01DX001 (ip), vehicle: Klucel (hydroxypropylcellulose) (HPC) 92 % of control | [21] 88 % of control | [22] 87 % of control

CC[N+](CC)(CCOc1ccc(C(C)(C)CC(C)(C)C)cc1)Cc1ccccc1
inactive: dose: 1.25 mg/kg/injection, schedule: Q01DX009 (ip), vehicle: saline with Tween-80 86 % of control

COc1ccc2cc(Br)ccc2c1
inactive: [19] 107 % of control | [20] 102 % of control | [28] 102 % of control

NCCN=C(N)C(N)=NCCN
inactive: dose: 100.0 mg/kg/injection, schedule: Q04DX002 (ip), vehicle: saline 100 % of control | dose: 200.0 mg/kg/injection, schedule: Q04DX002 (ip), vehicle: saline 103 % of control | dose: 400.0 mg/kg/injection, schedule: Q04DX002 (ip), vehicle: saline 110 % of control

CCOCc1cccc2ccccc12
inactive: [23] 106 % of control | [24] 98 % of control | [25] 102 % of control

CCCCCCCCCCCC(=O)NC(=S)Nc1ccccc1C(=O)OC
inactive: dose: 25.0 mg/kg/injection, schedule: Q01DX009 (ip), vehicle: saline with Tween-80 93 % of control | [18] 93 % of control | [19] 96 % of control and 92 % of control | [26] 102 % of control and 109 % of control | [20] 104 % of control and 86 % of control and 90 % of control | [27] 105 % of control and 89 % of control | [28] 94 % of control and 108 % of control | dose: 400.0 mg/kg/injection, schedule: Q04DX002 (ip), vehicle: saline with Tween-80 94 % of control and 88 % of control
